One data set addresses T1, human DRD2, long form (Homo sapiens, UniProt P14416).
T1 construct: expressed in transfected cells; Gqi5 chimera transiently transfected
The data set is described as follows: Intracellular Ca2+ mobilization assay (HEK293T stably expressing DRD2, chimeric G-protein Gqi5, calcium dye, confocal microscopy). It is filed as cell-based. To be noted: for activity in calcium flux assay (in words): calcium flux bioactivity. As for the experimental part:
Intracellular calcium measurement was used to determine G-protein-mediated signaling by DRD2. Because DRD2 is linked to the G-protein subtype Gi, agonist binding inhibits adenyl cyclase activity.[42] To mitigate this effect, we created an HEK293T cell line stably expressing human DRD2, long form, and a chimeric G-protein, Gqi, which alters the DRD2 receptor’s G-protein coupling so that signaling can occur through Gq, resulting in an intracellular calcium flux.[43] The assay is performed by first loading the cell line with a calcium-sensing dye. Binding of the ligand to the receptor results in an influx of calcium to the cytoplasm, which can be characterized in real time by monitoring the increase in dye fluorescence with confocal microscopy.
Figure 2 Intracellular calcium flux assay. HEK293T cell line stably expressing constructs for human DRD2 and a chimeric G-protein is loaded with calcium-sensing dye, […]. After dosing the probe, confocal microscopy is used to determine the calcium flux in the cell by change in dye fluorescence.
A stable HEK293T-derived cell line-expressing DRD2-Strep Tag II fusion was maintained in DMEM supplemented with 10% FBS, 100 U/mL penicillin, and 100 μg/mL streptomycin in a humidified atmosphere at 37 °C in 5% CO2. On day 1, cells were plated at a density of 4 × 10^4 cells/cm^2 in a poly-D-lysine-coated 18-well chambered coverslip (Ibidi). The following day (day 2), cells were transfected with a 10× solution of 3:1 mixture of Gqi5/Optifect Transfection Reagent (Thermo) in unsupplemented DMEM. On day 3, the transfection media was removed and calcium-sensitive dye loading was performed following the protocol of the Fluo-4 Direct Calcium Assay Kit (Invitrogen). 5× drug stimulation solutions were prepared in filter-sterilized HBSS. Once Fluo-4 loading was complete, a time series acquisition at a rate of 1 fps was recorded using a Zeiss LSM 980 with Airyscan 2. Basal fluorescence was recorded for 20 s, followed by the addition of drug solution to a 1× final concentration and acquisition for an additional 40 s. Results in the form of fold fluorescence increase over basal were averaged over 50 cells in ImageJ (NIH), and GraphPad Prism was used for the analysis of data.
For orientation: Calcium flux is commonly read through the fluorescence of an indicator in the cells.

Data set [1] deals with T2, DRD2 (Homo sapiens, UniProt P14416). The data set is described as follows: Western blot analysis of DRD2-probe binding with competition by parent pharmacophore. Set-up: expressed in transfected cells. Particulars: probe 100 nm; membrane fraction enriched via Strep Tag II. The text has this:
To observe the photo-cross-linking of DRD2 at the protein level, we analyzed the colocalization of DRD2 by clicking a fluorophore on the probe and performing Western blots. We further observed the competition with the parent pharmacophore of each probe and the ability of a negative control benzophenone (16) to cross-link to DRD2. Our DRD2-expressing cells or unmodified 293T cells (control group) were suspended in media, treated with the probe at a 100 nm concentration, and photo-cross-linked. The cells were then lysed, and the membrane fraction was separated and enriched for DRD2 by pulldown of the Strep Tag II fusion using magnetic beads. After “clicking” a fluorescent tag to the probe, the membrane fraction was run on an SDS-PAGE gel, transferred to a nitrocellulose membrane, and treated with antibodies against DRD2 and Strep Tag II. […] We also observed many nonspecific binding bands for the probe, which is consistent with our other studies, as well as the observations of the field when it relates to photo-cross-linking groups. […] With this confirmation, we proceeded to proteomic analysis of probe interactions.
Figure 6 Photo-cross-linking of probes 5 and 7 to DRD2 visualized with Western blot. Lanes 1–5 correspond to samples with probe 5 at 100 nm, lanes 6–10 correspond to samples treated with probe 7 at 100 nm, and lanes 11–14 correspond to samples treated with negative control probe 16. Lanes: 1, 6, and 11 are the anti-DRD2 antibody channel, lanes 2, 3, 7, 8, and 12 are fluorescence of the Alexa Fluor 555 clicked to the probes 5, 7, or 16, lanes 4, 9, and 13 are the anti-Strep Tag antibody channel, and lanes 5, 10, and 14 are the overlaid channels for the respective probes.
A stable HEK293T-derived cell line-expressing DRD2-Strep Tag II fusion was maintained in DMEM supplemented with 10% FBS, 100 U/mL penicillin, and 100 μg/mL streptomycin in a humidified atmosphere at 37 °C in 5% CO2. Cells were plated at a density of 4 × 10^4 cells/cm^2 in T300 tissue culture flasks (CellTreat) and allowed to grow to an 80% confluency. At confluency, media was removed and cells were washed once with cold HBSS, followed by incubation for 15 min in cold HBSS with 0.53 mM EDTA. Following incubation, cells were scraped off of the bottom of the flask and the cell suspension was transferred to a 15 mL conical tube and then pelleted at 500g for 5 min. The supernatant was removed, and the cell pellet was resuspended in HBSS followed by centrifugation at 500g for 5 min. […] The supernatant of the cell pellet was removed, and the cells were resuspended in probe solution and incubated at room temperature for 2 min followed by centrifugation at 500g for 5 min. The cell pellet was resuspended in either HBSS or 50 μM competitor solution in HBSS and irradiated with a 365 nm UV lamp (8 W, 2 cm distance) for 30 min at room temperature. The cells were then pelleted at 500g for 5 min, and the supernatant was removed. Membrane fractionation was performed following the MEM-PER Membrane Protein Extraction Kit (Thermo). The solubilized membrane fraction was incubated with hydrophilic streptavidin magnetic beads (NEB) for 1 h at room temperature. The flow-through was removed, and the beads were washed twice with PBS. […]

The test system of a further data set is Dopamine receptor D1. To be noted: stated without reference; cited from earlier work.
The conditions of data set [2]: cited from earlier work.
The target of data set [3] is T2, DRD2. Put plainly: PRESTO-TANGO β-arrestin recruitment assay (HTLA cells transfected with DRD2-TANGO, luciferase readout). It is filed as cell-based. Set-up: TEV protease site and fused transcription factor (TANGO module); expressed in transfected cells; host or cells: HTLA cells (gift of G. Barnea), transiently transfected. Particulars: for activity in β-arrestin recruitment (in words): PRESTO-TANGO. The text has this:
To characterize the response of the β-arrestin effector pathway to our ligands, we used the Parallel-Receptor-ome Expression and Screening via Transcriptional Output TANGO (PRESTO-TANGO) assay developed in the Roth lab.[44],[45] This assay uses luciferase activity to monitor β-arrestin recruitment by DRD2 (Figure 3a).
Figure 3 β-Arrestin recruitment analysis. (a) PRESTO-TANGO assay schematic: a ligand binds a chimeric DRD2 receptor, which then recruits β-arrestin fused with a TEV protease. The protease cuts a site between the receptor and a fused transcription factor, which then transits to the […] to initiate transcription of a luciferase gene. The luciferase activity is subsequently quantified.
HTLA cells were a gift from the laboratory of G. Barnea and were maintained in DMEM supplemented with 10% FBS, 100 U/mL penicillin, 100 μg/mL streptomycin, 2 μg/mL puromycin, 100 μg/mL hygromycin B, and 100 μg/mL G418 in a humidified atmosphere at 37 °C in 5% CO2. On day 1, cells were plated at a density of 1 × 10^5 cells/cm^2 in a black wall, clear-bottom 96-well plate (Nunc). The following day (day 2), cells were transfected with a 10× solution of 3:1 mixture of DRD2-TANGO/Optifect Transfection Reagent (Thermo) in unsupplemented DMEM. On day 3, 1× drug stimulation solutions were prepared in filter-sterilized unsupplemented DMEM. The transfection media was shaken or aspirated from the wells, and drug stimulation solutions were gently added. On day 4, drug solutions were removed from one well every 10 s (to maintain consistency of incubation time) and 50 μL per well of Bright-Glo solution (Promega) diluted 20-fold in HBSS was added. After incubation for 2 min at room temperature, luminescence was counted with an integration time of 10 s in a Spectramax i3x plate reader (Molecular Devices).
(In general: Recruitment of arrestin is a read-out of receptor activation apart from second messengers.)

T2 sequence (P14416 whole entry): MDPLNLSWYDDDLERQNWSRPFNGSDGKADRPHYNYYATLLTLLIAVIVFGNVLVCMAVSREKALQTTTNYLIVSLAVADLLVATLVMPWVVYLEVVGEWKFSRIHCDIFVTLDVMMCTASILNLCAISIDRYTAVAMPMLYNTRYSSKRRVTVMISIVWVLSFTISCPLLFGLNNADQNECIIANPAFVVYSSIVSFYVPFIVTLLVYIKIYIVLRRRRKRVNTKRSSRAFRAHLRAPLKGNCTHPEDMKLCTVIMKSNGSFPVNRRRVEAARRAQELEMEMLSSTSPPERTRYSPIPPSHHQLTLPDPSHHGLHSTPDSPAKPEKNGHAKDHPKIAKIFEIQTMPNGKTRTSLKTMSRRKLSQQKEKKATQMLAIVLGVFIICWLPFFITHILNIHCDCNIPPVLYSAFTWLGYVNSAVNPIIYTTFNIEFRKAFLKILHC
T1 sequence (P14416 whole entry): as above

`C#CCCC1(CCC(=O)N[C@H]2CCc3nc(N)sc3C2)N=N1` [Compound 8, (S)-N-(2-Amino-4,5,6,7-tetrahydrobenzo[d]thiazol-6-yl)-3-(3-(but-3-yn-1-yl)-3H-diazirin-3-yl)propanamide]: on human DRD2, long form, the “activity in calcium flux assay (in words)” value is recorded as “greatly diminished activity”.

Turning to `C#CCOc1ccc(C(=O)c2ccc(CN)cc2)cc1` [Compound 16, reference compound], on DRD2 [1], the “photo-cross-linking / colocalization with DRD2 band (Western blot)” value was “did not show colocalization with the DRD2 band”.

Consider `CCCN[C@H]1CCc2nc(N)sc2C1` [pramipexole], for which, in the data set on Dopamine receptor D1, the “binding to dopamine receptor D1 (in words)” value is listed as “bound poorly”. In data set [2], the “patients experiencing adverse drug reactions” value is reported as at most 74%. On DRD2 [3], the “activity in β-arrestin recruitment (in words)” value is “low nanomolar activity”.

Regarding `CCCN(CCC)CCc1cccc2c1CC(=O)N2` [ropinirole, reference compound], the half-maximal effective concentration (EC50) was determined as 0.124 µM at human DRD2, long form (Ca assay, HEK293T stably expressing human DRD2 and chimeric G-protein, Hill slope of 1.0); 0.00614 µM at DRD2 [3] (PRESTO-TANGO β-arrestin recruitment, luciferase activity, Hill slope of 1.0). The “activity in β-arrestin recruitment (in words)” value on DRD2 [3] is “low nanomolar activity”.

Consider `C#CCCC1(CCC(=O)N(CCC)CCc2cccc3c2CC(=O)N3)N=N1` [Compound 4, 3-(3-(But-3-yn-1-yl)-3H-diazirin-3-yl)-N-(2-(2-oxoindolin-4-yl)ethyl)-N-propylpropanamide], for which the “activity in calcium flux assay (in words)” value on human DRD2, long form is given as “greatly diminished activity”.

As usually defined, the EC50 is the midpoint of the concentration-response curve.

The values above are taken from publication PMC9585581, “Developing Photoaffinity Probes for Dopamine Receptor D2 to Determine Targets of Parkinson’s Disease Drugs” (ACS Chemical Neuroscience, 2022).
